Measured values from patent publication EP1043336A2, “Stereospecific antibodies for imidazolinone herbicides” (The Regents of the University of California, priority 1999, dated 2000).

What was measured:
MAb 3A2 = assay: Indirect competition EIA, cross-reactivity with common agrochemicals (wells coated with hapten 17-OA); format: binding, mouse; conditions: for inhibition: 5-10 ppm
Method: EIAs were done essentially as described by Karu et al (1994). For indirect EIAs, hapten-protein conjugates were adsorbed to wells of Immulon 2™ 96-well plates (Dynatech) in 0.1 mL of coating buffer (0.015 M Na2CO3 ― 0.035 M NaHCO3 ―0.003 M NaN3, pH 9.6). PBS-Tween containing 0.05% gelatin, 0.45 micron-filtered, was used as the diluent for antibodies and antibody-analyte mixtures, and as a blocking solution to prevent adventitious binding. The detecting antibody for the indirect EIAs was alkaline phosphatase conjugated goat anti-mouse IgG and IgM The substrate solution for color development was p-nitrophenyl phosphate 1 mg/mL, in 10% (w/v) diethanolamine-HCl, pH 9.8 ― 0.5 mM MgCl2 ― 3 mM NaN3. • 1. Indirect competition EIA. Indirect competition EIA (immobilized hapten conjugate) was used to evaluate the responses of mice, screen the MAbs, and quantify imidazolinone analytes. Optimal amounts of imidazolinone-BSA or -OVA conjugate for plate coating and dilutions for the hybridoma culture supernate or antiserum were determined by checkerboard assay. To perform the assay, wells were coated overnight at 4°C with a limiting amount of conjugate in 0.1 mL of coating buffer. Imidazolinone standards (0.5 to 5000 ppb) or unknowns were mixed with a limiting amount of antiserum or hybridoma culture fluid in the diluent and incubated overnight at 4°C in tightly sealed polypropylene tubes. The coated wells were washed and blocked with 0.2 mL of 0.05% gelatin in PBS-Tween for 30 minutes at room temperature. After another wash, aliquots (0.1 mL) of the antibody-analyte mixture were added to wells, and the remainder of the assay was performed as previously described (Karu et al., 1994). • 2. Direct competition EIA. Direct EIAs were performed by capturing the MAb on microwells and allowing the analyte to compete with a HRP-conjugated hapten for binding. Bound HRP-conjugate was then detected with a commercial HRP substrate. The sensitivity of this assay was enhanced by use of a commercial enzymatic signal amplification kit (GIBCO-BRL). Wells were coated with 200 or 500 ng of affinity-purified goat anti-mouse IgG or anti-mouse IgG Fc in the coating buffer at 4°C overnight. The next day, the wells were washed and blocked with PBS-Tween-gelatin for 30 minutes at room temperature, and then incubated for 1.5 hours at room temperature with hybridoma culture supernate. The plates were washed with PBS-Tween, and 0.1 mL of diluent containing the analyte and a limiting amount of biotinylated imidazolinone was added for 1.5 h at room temperature. The wells were washed three times with PBS-Tween, and Extravidin-alkaline phosphatase conjugate (Sigma) was then added for 30 minutes at room temperature. The plates were washed again with TBS (0.05 M Tris-HCl, pH 7.5,― 0.15 M NaCl) to remove remaining inorganic phosphate, which can inhibit the GIBCO-BRL EIA Amplification system. Substrate solution for the amplification step (0.05 mL) was added for 15 minutes at room temperature, followed by 0.05 mL of the enzymatic amplifying solution and chromogen. Color development at 492 nm was recorded. • 3. EIA Data Analysis. Color development was monitored on a Multiskan EIA reader (Flow Laboratories) interfaced with a Macintosh computer, and the rates of the reaction were calculated by linear regression. Competition EIA dose- response curves were fitted with a 4-parameter logistic equation (Karu et al., 1994). […]

[1] = test system: scFv p3A5.1c7 (scFv 3A5, SEQ.ID NO. 3); assay: Relative affinity of MAb and affinity-purified scFv by indirect EIA with equimolar protein; format: binding, mouse; conditions: indirect EIA on 16-BSA, scFv versus MAb 3A5
Method: The relative affinities of the MAbs and affinity-purified scFv were determined by indirect EIA using equimolar amounts of protein, essentially as described by Graham, B. M., et al. 1995. Cloning, expression, and characterization of a single-chain antibody fragment to the herbicide paraquat. J. Chem. Tech. Biotechnol. 63: 279-289. The results are illustrated in graphical form in Figures 15A (16-BSA) and 15B (17-OA), with the MAb represented by the solid line and the scFv represented by the broken line in each plot.

[2] = test system: panel of monoclonal antibodies (MAbs); assay: Detection of imidazolinones by the panel of MAbs (EIA); format: binding, mouse
Method: EIAs were done essentially as described by Karu et al (1994). For indirect EIAs, hapten-protein conjugates were adsorbed to wells of Immulon 2™ 96-well plates (Dynatech) in 0.1 mL of coating buffer (0.015 M Na2CO3 ― 0.035 M NaHCO3 ―0.003 M NaN3, pH 9.6). PBS-Tween containing 0.05% gelatin, 0.45 micron-filtered, was used as the diluent for antibodies and antibody-analyte mixtures, and as a blocking solution to prevent adventitious binding. The detecting antibody for the indirect EIAs was alkaline phosphatase conjugated goat anti-mouse IgG and IgM The substrate solution for color development was p-nitrophenyl phosphate 1 mg/mL, in 10% (w/v) diethanolamine-HCl, pH 9.8 ― 0.5 mM MgCl2 ― 3 mM NaN3. • 1. Indirect competition EIA. Indirect competition EIA (immobilized hapten conjugate) was used to evaluate the responses of mice, screen the MAbs, and quantify imidazolinone analytes. Optimal amounts of imidazolinone-BSA or -OVA conjugate for plate coating and dilutions for the hybridoma culture supernate or antiserum were determined by checkerboard assay. To perform the assay, wells were coated overnight at 4°C with a limiting amount of conjugate in 0.1 mL of coating buffer. Imidazolinone standards (0.5 to 5000 ppb) or unknowns were mixed with a limiting amount of antiserum or hybridoma culture fluid in the diluent and incubated overnight at 4°C in tightly sealed polypropylene tubes. The coated wells were washed and blocked with 0.2 mL of 0.05% gelatin in PBS-Tween for 30 minutes at room temperature. After another wash, aliquots (0.1 mL) of the antibody-analyte mixture were added to wells, and the remainder of the assay was performed as previously described (Karu et al., 1994). • 2. Direct competition EIA. Direct EIAs were performed by capturing the MAb on microwells and allowing the analyte to compete with a HRP-conjugated hapten for binding. Bound HRP-conjugate was then detected with a commercial HRP substrate. The sensitivity of this assay was enhanced by use of a commercial enzymatic signal amplification kit (GIBCO-BRL). Wells were coated with 200 or 500 ng of affinity-purified goat anti-mouse IgG or anti-mouse IgG Fc in the coating buffer at 4°C overnight. The next day, the wells were washed and blocked with PBS-Tween-gelatin for 30 minutes at room temperature, and then incubated for 1.5 hours at room temperature with hybridoma culture supernate. The plates were washed with PBS-Tween, and 0.1 mL of diluent containing the analyte and a limiting amount of biotinylated imidazolinone was added for 1.5 h at room temperature. The wells were washed three times with PBS-Tween, and Extravidin-alkaline phosphatase conjugate (Sigma) was then added for 30 minutes at room temperature. The plates were washed again with TBS (0.05 M Tris-HCl, pH 7.5,― 0.15 M NaCl) to remove remaining inorganic phosphate, which can inhibit the GIBCO-BRL EIA Amplification system. Substrate solution for the amplification step (0.05 mL) was added for 15 minutes at room temperature, followed by 0.05 mL of the enzymatic amplifying solution and chromogen. Color development at 492 nm was recorded. • 3. EIA Data Analysis. Color development was monitored on a Multiskan EIA reader (Flow Laboratories) interfaced with a Macintosh computer, and the rates of the reaction were calculated by linear regression. Competition EIA dose- response curves were fitted with a 4-parameter logistic equation (Karu et al., 1994).

[3] = test system: AHAS isozymes, designated I and II; conditions: isozymes from Black Mexican Sweet corn; cited from earlier work
[4] = test system: scFv p3A5.1c7 (scFv 3A5, SEQ.ID NO. 3); assay: Indirect competition EIA with scFv (16-BSA coating), compared with MAb 3A5.1; format: binding, mouse; conditions: scFv on 16-BSA versus MAb 3A5.1

For CCCN(CCC)C(=O)SCC [EPTC, S-ethyl dipropylthiocarbamate], the cross-reactivity (MAb 3A2; up to 10 ppm) was “No cross-reactivity”.
In the case of CCc1cccc(CC)c1N(COC)C(=O)CCl [alachlor, 2-chloro-2'-6'-diethyl-N-(methoxymethyl)-acetanilide], the cross-reactivity (MAb 3A2; up to 10 ppm) was “No cross-reactivity”.
With CCNc1nc(Cl)nc(NC(C)C)n1 [atrazine, Atrazine] the cross-reactivity (MAb 3A2; up to 10 ppm) was “No cross-reactivity”.
With CCOC(=O)c1ccccc1S(=O)(=O)NC(=O)Nc1nc(Cl)cc(OC)n1 [chlorimuron ethyl, ethyl 2-[[[[(4-chloro-6-methoxypyrimidin 2-yl)amino]carbonyl]amino]sulfonyl]benzoate] the inhibition (MAb 3A2) was 10-15% and the cross-reactivity (MAb 3A2; up to 5 ppm) was “did not cross-react”.
For COc1nc(C)nc(NC(=O)NS(=O)(=O)c2ccccc2Cl)n1 [chlorsulfuron, 2-chloro-N[(4-methoxy-6-methyl-1,3,5 triazin-2-yl)aminocarbonyl]benzenesulfonamide], the inhibition (MAb 3A2) was 10-15% and the cross-reactivity (MAb 3A2; up to 5 ppm) was “did not cross-react”.
For CC(C)N.O=C(O)CNCP(=O)(O)O [glyphosate, N-(phosphono-methyl) glycine isopropylamine salt], the cross-reactivity (MAb 3A2; up to 10 ppm) was “No cross-reactivity”.
With CC(C)C1(C)N=C(c2ncc(C=CC(=O)O)cc2C(=O)O)NC1=O (stereo not shown) [hapten 16, imazapyr-5-propenoic acid] the “affinity of the scFv relative to that of the MAb (fold poorer)” value [1] was “about 1,000 fold”.
Cc1cnc(C2=NC(C)(C(C)C)C(=O)N2)c(C(=O)O)c1 (stereo not shown) [imazapic, 5-methyl-2-(4-isopropyl-4-methyl-5-oxo-2-imidazolin-2-yl) nicotinic acid] gave a detection range [2] of 3 to 30 ng/mL.
For CC(C)C1(C)N=C(c2ncccc2C(=O)O)NC1=O (stereo not shown) [imazapyr, 2-(4-isopropyl-4-methyl-5-oxo-2-imidazolin-2-yl) nicotinic acid], the detection range [2] is listed as 300-500 ppb and the “sensitivity of AHAS II vs AHAS I to inhibition” value [3] is listed as “significantly more sensitive”.
For CC(C)C1(C)N=C(c2nc3ccccc3cc2C(=O)O)NC1=O (stereo not shown) [imazaquin, 2-(4-isopropyl-4-methyl-5-oxo-2-imidazolin-2-yl)-3-quinoline carboxylic acid], the detection range [2] was 3 to 30 ng/mL and the “I50 with scFv relative to I50 with the MAb (higher = less sensitive)” value [4] was “about two-fold”.
In the case of CCc1cccc(C)c1N(C(=O)CCl)C(C)COC (stereo not shown) [metolachlor, 2-chloro-N-(2-ethyl-6-methylphenyl)-N-(2-methoxy-1-methylethyl) acetamide], the cross-reactivity (MAb 3A2; up to 10 ppm) was “No cross-reactivity”.
With CCSC(=O)N1CCCCCC1 [molinate, S-ethyl-hexahydro-1-H-azepine-1-carbothioate] the cross-reactivity (MAb 3A2; up to 10 ppm) was “No cross-reactivity”.
For CCOc1cc(Oc2ccc(C(F)(F)F)cc2Cl)ccc1[N+](=O)[O-] [oxyfluorfen, 2-chloro-1-(3-ethoxy-4-nitrophenoxy)-4-(trifluoromethyl) benzene], the cross-reactivity (MAb 3A2; up to 10 ppm) was “No cross-reactivity”.
In the case of C[n+]1ccc(-c2cc[n+](C)cc2)cc1.[Cl-].[Cl-] [paraquat, 1,1'-dimethyl-4,4'-bipyridinium dichloride], the cross-reactivity (MAb 3A2; up to 10 ppm) was “No cross-reactivity”.
In the case of CCC(CC)Nc1c([N+](=O)[O-])cc(C)c(C)c1[N+](=O)[O-] [pendimethalin, N-(1-ethylpropyl)-3,4-dimethyl-2,6-dinitrobenzenamine], the cross-reactivity (MAb 3A2; up to 10 ppm) was “No cross-reactivity”.
For COC(=O)Nc1cccc(OC(=O)Nc2cccc(C)c2)c1 [phenmedipham, 3-methoxycarbonylaminophenyl-N(3'-methylphenyl)carbamate], the cross-reactivity (MAb 3A2; up to 10 ppm) was “No cross-reactivity”.
In the case of CCC/C(=N\OCC)C1=C(O)CC(CC(C)SCC)CC1=O (stereo not shown) [sethoxydim], the cross-reactivity (MAb 3A2; up to 10 ppm) was “No cross-reactivity”.
With “a mixture of methyl 6-(4-isopropyl-4-methyl-5-oxo-2-imidazolin-2-yl) m-toluate and methyl 2-(4-isopropyl-4-methyl-5-oxo-2-imidazolin-2-yl) p-toluate [imazamethabenz-methyl]” the detection range [2] was 300-500 ppb.
